pIC50: −log10 of the molar value. “Also recorded” adds a separate entry of the source.
Legend:
KCNQ1 = KCNQ1 (Homo sapiens, UniProt P51787); settings: KCNQ1 antagonist; Towart et al., 2009; cited from earlier work
shCon cells = assay: Whole-cell current-clamp recordings (AP spiking, mAHP/sAHP) in shCon (control shRNA) mPFC layer 2/3 pyramidal neurons, acute brain slices; format: cell-based, rat
Description: (§1) Pregnant Wistar rats were obtained from Charles River Laboratories, Inc., maintained by SoBran on a 12-hour light cycle and fed ad libitum. In utero electroporation was performed as previously described (Chen et al., 2014; Maher and Loturco, 2012a). Electroporation was performed on embryonic day 16 (E16) and gestation age was confirmed during surgery. All plasmids were used at a final concentration of 1.5 μg/μl, and the mPFC was targeted for transfection. Pregnant dams were returned to the same housing conditions after recovery from surgery, and after litters were born, transfected rats were used for experiments at days P18-24.
(§2) Acute brain slices were obtained from rats and mice as described previously (Maher and Loturco, 2012b). Briefly, P18-24 male and female animals were deeply anesthetized with isoflurane and transcardially perfused with ice-cold oxygenated (95% O2 and 5% CO2) dissecting buffer containing (in mM): 83 NaCl, 2.5 KCl, 1 NaH2PO4, 26.2 NaHCO3, 22 glucose, 72 sucrose, 0.5 CaCl2, and 3.3 MgCl2. Animals were humanly sacrificed and decapitated and the brains were rapidly removed and immersed in ice-cold oxygenated dissection buffer. Coronal slices (300 μm) were cut using a vibratome (Microm HM650V), incubated in dissection buffer for 30-45 minutes at 34° C., and then stored at room temperature. Slices were visualized using IR differential interference microscopy (DIC) (Olympus BX51WI) and a CCD camera (QICAM, QImaging). Individual layer 2/3 pyramidal cells expressing EGFP in rat brain slices were visualized with epifluorescent illumination and a 43× Olympus LUMPlanFLN (0.8 numerical aperture) objective.
(§3) For all experiments, artificial cerebrospinal fluid (ACSF) was oxygenated (95% O2 and 5% CO2) and contained in (in mM): 125 NaCl, 25 NaHCO3, 1.25 NaH2PO4, 3 KCl, 25 dextrose, 1 MgCl2, and 2 CaCl2, pH 7.3. Patch pipettes were fabricated from borosilicate glass (N51A, King Precision Glass, Inc.) to a resistance of 2-5 MΩ. For current- and voltage-clamp measurements, pipettes were filled with (in mM): 125 potassium gluconate, 10 HEPES, 4 Mg-ATP, 0.3 Na-GTP, 0.1 EGTA, 10 phosophocreatine, 0.05% biocytin, adjusted to pH 7.3 with KOH. For all experiments GABAa receptors were blocked with SR-95531 (Gabazine, 5 μM, Ascent Scientific). For AHP current experiments, synaptic currents were blocked with DL-2-amino-5-phosphopentanoic acid (D,L-AP5, 100 μM, Ascent Scientific), 2,3, dioxo-6-nitro-1,2,3,4, tetrahydrobenzo-quinoxaline-7-sulfonamide (NBQX, 10 μM) and SR-95531 (Gabazine, 5 μM, Ascent Scientific). Ca2+-activated currents were blocked with Tetraethylammonium chloride (TEA, 1 mM, Abcam), apamin (100 nM, Abcam), and carbachol (10 μM, Abcam). Current signals were recorded with either a Multiclamp 700A (Molecular Devices) or with an Axopatch 200B amplifier (Molecular Devices) and were filtered at 2 kHz using a built-in Bessel filter and digitized at 10 kHz. Voltage signals were filtered at 2 kHz and digitized at 10 kHz. Data were acquired using Axograph on a Dell PC. Data acquisition was terminated when series resistance was >15 MΩ. For voltage clamp recordings, pyramidal cells were held at −60 mV. No holding current was used for current-clamp recordings.
(§4) Axograph was used on a Macintosh computer for analysis. To measure spike frequency, EGFP-positive layer 2/3 neurons of the mPFC were injected with a 600 ms depolarizing current pulses ranging from 50 to 500 pA at 50 pA increments with an 10 s inter-trial interval. Each current pulse was measured in triplicate, and the number of resulting APs was averaged. For analysis of fAHP amplitude, the second and third current evoked spikes within the 600 ms pulse were measured. The fAHP potential was measured by subtracting the voltage at the peak of the fAHP from the threshold potential for spike initiation (slope of AP exceeds 50 mV/ms). The mAHP potential was measured at the peak of the AHP that followed the 600 ms current pulse. […]

shTCF4 cells = assay: Whole-cell current-clamp recordings (AP spiking, mAHP/sAHP) in shTCF4 (TCF4 knockdown) mPFC layer 2/3 pyramidal neurons, acute brain slices; format: cell-based, rat; settings: N=8
Description: as §1, §2, §3, §4

[1] = test system: AHP currents in EGFP+ cells expressing shCon or shTCF4; assay: Whole-cell voltage-clamp recordings of AHP currents with progressive pharmacological blockade; format: cell-based, rat
Description: as §3, with “kHz.” for “kHz. Voltage signals were filtered at 2 kHz and digitized at 10 kHz. Data were acquired using Axograph on a Dell PC. Data acquisition was terminated when series resistance was >15 MΩ. For voltage clamp recordings, pyramidal cells were held at −60 mV. No holding current was used for current-clamp recordings.”

TCF4 protein = assay: Western blot of endogenous TCF4 protein after shRNA transfection of rat neuroblastoma cells; format: cell-based; settings: transfected rat neuroblastoma cells; vs control shRNA; N=4
Description: Rat neuroblastoma cells (B104) were cultured in Dulbecco's modified Eagle medium (DMEM) (Thermo Fisher) supplemented with 10% FBS, 100 U-100 μg/ml Penicillin-Streptomycin, 2 mM L-Glutamine, and 100 μm non-essential amino acids and maintained at 37° C. with 5% CO2. At a confluency of […], cells were co-transfected in 6 well plates using Lipofectamine 3000 (Thermo Fisher) with 0.5 μg PBR-GFP, a puromycin selection plasmid, and 2 μg shRNA or 2 μg CRISPR-Cas9 plasmids according to the manufacturer's protocol. Cells were selected with 500 ng/mL puromycin for 24 hours and were allowed to recover in growth medium lacking penicillin-streptomycin for 48 hours.
Rat neuroblastoma cells were washed in cold PBS, scraped from plates and pelleted by centrifugation at 4000 rpm for 5 minutes at 4° C. […]
30 μg of total protein were used from each sample; protein was subjected to gel electrophoresis using a 4-12% gradient Novex Bis-Tris Bolt SDS-PAGE gel. […] Bound antibody was detected using IRdye donkey anti-goat 680 (1:10,000, Li-Cor) and IRdye donkey anti-rabbit 800 (1:10,000, Li-Cor). Antibody detection and quantification were carried out using the LI-COR Odyssey infrared system and software.

TCF4 transcript = assay: qRT-PCR of TCF4 transcript after shRNA transfection of rat neuroblastoma cells; format: cell-based; settings: transfected rat neuroblastoma cells; vs control shRNA; N=4
Description: To measure Tcf4 transcript expression across the lifespan in the rat, three cortical samples per age group, as well as cortical samples extracted from both genotypes of postnatal day 21 (p21) TCF4 mice to measure SCN10a and KCNQ1 expression, were separately flash frozen and homogenized in Trizol (Life Technologies). Aqueous phase was mixed with a 1:1 volume of 70% ethanol prior to purification using RNeasy mini columns treated with DNAse according to manufacturer's protocol (Qiagen). RNA samples were then reverse-transcribed to cDNA using the Quantscript Reverse Transcriptase kit (Qiagen). Amplification of cDNA was performed with iTaq SYBR Green Supermix (Bio-Rad) and TCF4, KCNQ1, and SCN10a primers were designed using with Primer 3 software (http://bioinfo.ut.ee/primer3-0.4.0/). End-point PCR followed by product sequencing, in addition to cDNA dilution series and melt curve analysis were used to verify primer design efficiency and specificity. Real time PCR was performed on the 7900HT Fast Real-Time PCR system (Applied Biosystems) and melt curve analysis was done for absolute quantification of primer efficiency. Data were expressed as fold change of gene of interest normalized to GAPDH expression using 2^delta delta Ct. […]

Compound: CC(C)(Oc1ccc(Cl)cc1)C(=O)NC1C2CC3CC1CC(NS(C)(=O)=O)(C3)C2 (stereo not drawn) [JNJ303, 2-(4-Chlorophenoxy)-2-methyl-N-[5-[(methylsulfonyl)amino]tricyclo[3.3.1.13,7]dec-2-yl]-propanamide]
- pIC50 (KCNQ1): 7.19
- effect on the frequency of APs (spiking) (shCon cells; JNJ303, N=8, p=0.11): neither UCL2077 (p=0.35) nor JNJ303 (p=0.11) had an effect on spiking
- amplitude of the sAHP after application (shCon cells; JNJ303, before −4.67±0.48 mV, N=9, p=0.20): −4.22±0.57
- amplitude of the mAHP after application (shCon cells; JNJ303, before −5.93±0.58 mV, N=9, not significant): −5.61±0.74 mV
- effect on the frequency of APs generated in response to current injections (shTCF4 cells; JNJ303 1 μM, shTCF4 cells, significant for current pulses 250-500 pA, p=0.0084): effective at increasing the spiking frequency; also recorded: significantly increased firing frequency
- amplitude of the sAHP after application (shTCF4 cells; JNJ303, shTCF4 cells, before −2.31±0.46 mV, p=0.041): −1.71±0.33 mV
- amplitude of the mAHP after application (shTCF4 cells; JNJ303, shTCF4 cells, before −3.52±0.58 mV, p<0.044): −2.77±0.36 mV

Compound: CC[N+](CC)(CC)CC.[Cl-] [TEA, Tetraethylammonium chloride]
- effect on the fAHP current ([1]; TEA 1 mM bath application, shCon and shTCF4 cells): blockade of the fAHP current

Compound: C[N+](C)(C)CCOC(N)=O [carbachol]
- effect on spiking (shCon cells; carbachol bath application, effective for current injections 200-500 pA, N=12, p=0.0038): increased spiking
- amplitude of the sAHP after application (shCon cells; carbachol, before −3.13±0.45, N=19, p=0.0004): −1.10±0.32 mV
- peak amplitude of the mAHP after application (shCon cells; carbachol, before −4.21±0.52, N=19, p=0.0008): −2.32±0.31 mV
- effect on the sAHP (voltage clamp) ([1]; carbachol, shTCF4 cells, average voltage-clamp traces): block the sAHP
- effect on action potential frequency (shTCF4 cells; carbachol (10 μM) bath application, shTCF4 neurons, 600 ms pulses 50 to 500 pA, p=0.0075): effective at rescuing action potential frequency
- peak amplitude of the mAHP after application (shTCF4 cells; carbachol, shTCF4 cells, before −6.78±0.70, p=0.0051): −4.23±0.60 mV

Compound: shTCF4: shRNA construct targeting the open reading frame of rat TCF4, AGAAACTAGACGACGACAA (SEQ ID NO:2) (the letters are possibly those of the target site; listed as Homo sapiens)
- endogenous TCF4 protein (Western blot) (TCF4 protein): 1.9±2.0 % of control
- TCF4 transcript (qRT-PCR) (TCF4 transcript): 0.55±0.15 fold change from control

Compound: shTCF4_2: shRNA construct targeting the 3′ UTR of rat TCF4, GTTTCAGCATTCCCAATTA (SEQ ID NO:1) (the letters are possibly those of the target site)
- endogenous TCF4 protein (Western blot) (TCF4 protein): 36.4±4.3 % of control
- TCF4 transcript (qRT-PCR) (TCF4 transcript): 0.47±0.11 fold change from control

— patent US11221329B2, “Treatment of neurological and neurodevelopmental diseases and disorders associated with aberrant ion channel expression and activity” (LIEBER INSTITUTE FOR BRAIN DEVELOPMENT, priority 2015, dated 2022)
